{"source": "patent US4798832A", "about": "“Pyrido[1,2-a]pyrimidine compounds, corresponding intermediates and use as SRS-A antagonists” (Tokyo Tanabe Company, Limited, priority 1986, dated 1989)", "key": {"[1]": {"experiment": "Toxicity test: acute toxicity (LD50) in mice", "details": "mouse, in vivo", "description": "(§1) The acute toxicity (LD50) of several typical examples of the present compounds [I] was tested of 5-weeks-old male ddY strain mice and male SD straih rats. For this purpose, the compounds of Examples 2 and 4 were selected as typical examples. […] For rats, their LD50 values were not less than 4.0 g/kg when administered orally, and not less than 200 mg/kg when administered intravenously."}, "[2]": {"experiment": "In vitro test: antagonistic effect on leukotriene D4-induced contraction of excised guinea pig terminal ileum", "assay_type": "cell-based, guinea pig (male, Hartley strain)", "details": "guinea pig terminal ileum contraction, leukotriene D4 0.3 ng/ml, with atropine and mepyramine; for IC50: Cavia porcellus", "description": "(§2) The antagonistic effect on leukotriene D4 of the present compounds [I] was tested by using the terminal ileum excised from a male guinea pig of the Hartley strain. Specifically, the terminal ileum was suspended, under aerated conditions, in 10 ml of Tyrode's solution containing 5×10^-7 M atropine and 1×10^-6 M mepyramine. Then, a test compound and leukotriene D4 (manufactured by Wako Junyaku Co., Ltd.) were successively added thereto with an interval of 30 seconds. After the lapse of 4 to 6 minutes, the degree of contraction of the ileum was measured with a Model TD-112S Isotonic Transducer (manufactured by Nippon Koden Co., Ltd.). The test compound and leukotriene D4 were used in such amounts as to give concentrations of 10^-9 to 10^-3 g/ml and 0.3 ng/ml, respectively.\n(§3) The antagonistic effect on leukotriene D4 of each test compound was evaluated in terms of the concentration of the test compound at which the ileum contraction reaction induced by leukotriene D4 was inhibited by 50% (hereinafter referred to as IC50) Specifically, at varying concentrations of each test compound, the percent inhibition of contraction was calculated from the measured degree of contraction of the ileum according the following equation [formula] On the basis of the data thus obtained, a dose-response curve was prepared and used to determine the IC50 value of the test compound."}, "[3]": {"experiment": "Toxicity test: acute toxicity (LD50) in rats", "details": "rat, in vivo", "description": "as §1"}, "leukotriene D4": {"system": "leukotriene D4", "experiment": "In vitro test: antagonistic effect on leukotriene D4-induced contraction of excised guinea pig terminal ileum", "assay_type": "cell-based, guinea pig (male, Hartley strain)", "details": "confirmatory experiment by the inventors; result in words", "description": "as §2, §3"}}, "note": "Counter-ions that a name gives are not always drawn.", "data": [{"molecule": "CCCc1c(OCc2cccn3c(=O)c(CCC(=O)O)cnc23)ccc(C(C)=O)c1O", "note": "[Example 4, 3-[9-(4-Acetyl-3-hydroxy-2-n-propylphenoxymethyl)-4-oxo-pyrido[1,2-a]pyrimidin-3-yl]propionic acid]", "values": [{"measurement": "LD50", "setting": "[1]; intravenous", "value": "≥ 100", "unit": "mg/kg"}, {"measurement": "LD50", "setting": "[1]; oral", "value": "≥ 4000", "unit": "mg/kg"}, {"measurement": "Antagonistic effect on leukotriene D4 IC50", "setting": "[2]", "value": 0.01, "unit": "µg/mL"}, {"measurement": "LD50", "setting": "[3]; intravenous", "value": "≥ 200", "unit": "mg/kg"}, {"measurement": "LD50", "setting": "[3]; oral", "value": "≥ 4000", "unit": "mg/kg"}]}, {"molecule": "O=C(O)c1cnc2c(OCc3ccccc3)cccn2c1=O", "note": "[Compound A, 9-Benzyloxy-4-oxo-pyrido[1,2-a]pyrimidine-3-carboxylic acid, reference compound]", "values": [{"measurement": "IC50", "setting": "[2]", "value": "≥ 10", "unit": "µg/mL"}, {"measurement": "antagonistic effect on SRS-A as represented by leukotriene D4", "setting": "leukotriene D4", "value": "no antagonistic effect on SRS-A"}]}, {"molecule": "CCCc1c(OCc2cccn3c(=O)c(CCC(=O)O)cnc23)ccc(C(C)=O)c1O", "note": "[Example 7, 3-[9-(4-Acetyl-3-hydroxy-2-n-propylphenoxymethyl)-4-oxo-pyrido[1,2-a]pyrimidin-3-yl]propionic acid potassium salt]", "values": [{"measurement": "Antagonistic effect on leukotriene D4 IC50", "setting": "[2]; potassium salt", "value": 0.03, "unit": "µg/mL"}]}, {"molecule": "CCCc1c(OCc2c(C)ccn3c(=O)c(CC(=O)O)cnc23)ccc(C(C)=O)c1O", "note": "[Example 3, [9-(4-Acetyl-3-hydroxy-2-n-propylphenoxymethyl)-8-methyl-4-oxo-pyrido[1,2-a]pyrimidin-3-yl]acetic acid]", "values": [{"measurement": "IC50", "setting": "[2]", "value": 0.8, "unit": "µg/mL"}]}, {"molecule": "CCCc1c(OCc2cccn3c(=O)c(CC(=O)O)cnc23)ccc(C(C)=O)c1O", "note": "[Example 2, [9-(4-Acetyl-3-hydroxy-2-n-propylphenoxymethyl)-4-oxo-pyrido[1,2-a]pyrimidin-3-yl]acetic acid]", "values": [{"measurement": "LD50", "setting": "[1]; intravenous", "value": "≥ 100", "unit": "mg/kg"}, {"measurement": "LD50", "setting": "[1]; oral", "value": "≥ 4000", "unit": "mg/kg"}, {"measurement": "IC50", "setting": "[2]", "value": 0.04, "unit": "µg/mL"}, {"measurement": "LD50", "setting": "[3]; intravenous", "value": "≥ 200", "unit": "mg/kg"}, {"measurement": "LD50", "setting": "[3]; oral", "value": "≥ 4000", "unit": "mg/kg"}]}, {"molecule": "CCCc1c(OCc2ccc3ncc(CCC(=O)O)c(=O)n3c2)ccc(C(C)=O)c1O", "note": "[Example 6, 3-[7-(4-acetyl-3-hydroxy-2-n-propylphenoxymethyl)-4-oxo-pyrido[1,2-a]pyrimidin-3-yl]propionic acid]", "values": [{"measurement": "IC50", "setting": "[2]", "value": 0.4, "unit": "µg/mL"}]}, {"molecule": "CCCc1c(OCc2cccn3c(=O)c(C(=O)O)cnc23)ccc(C(C)=O)c1O", "note": "[Example 1, 9-(4-Acetyl-3-hydroxy-2-n-propylphenoxymethyl)-4-oxo-pyrido[1,2-a]pyrimidine-3-carboxylic acid]", "values": [{"measurement": "IC50", "setting": "[2]", "value": 0.03, "unit": "µg/mL"}]}, {"molecule": "CCCc1c(OCc2cc(Br)cn3c(=O)c(CCC(=O)O)cnc23)ccc(C(C)=O)c1O", "note": "[Example 5, 3-[9-(4-Acetyl-3-hydroxy-2-n-propylphenoxymethyl)-7-bromo-4-oxo-pyrido[1,2-a]pyrimidin-3-yl]propionic acid]", "values": [{"measurement": "IC50", "setting": "[2]", "value": 0.3, "unit": "µg/mL"}]}]}
